ChEMBL document CHEMBL1141566, “Synthesis and antitumor evaluation of bis aza-anthracene-9,10-diones and bis aza-anthrapyrazole-6-ones” (2008)

How the values were obtained:
HT-29 [1] = assay: Effect on apoptotic NOL3 gene expression in human HT29 cells after 12 hrs; format: functional
HT-29 [2] = assay: Effect on proapoptotic CD27 gene expression in human HT29 cells after 6 hrs; format: functional
HT-29 [3] = assay: Effect on proapoptotic TRAF3 gene expression in human HT29 cells after 6 hrs; format: functional
HT-29 [4] = assay: Effect on apoptotic BRAF gene expression in human HT29 cells after 6 hrs; format: functional
HT-29 [5] = assay: Effect on proapoptotic FAS gene expression in human HT29 cells after 6 hrs; format: functional
HT-29 [6] = assay: Effect on proapoptotic BID gene expression in human HT29 cells after 6 hrs; format: functional
HT-29 [7] = assay: Effect on apoptotic BCL2L10 gene expression in human HT29 cells after 12 hrs; format: functional
HT-29 [8] = assay: Effect on proapoptotic CASP7 gene expression in human HT29 cells after 12 hrs; format: functional
HT-29 [9] = assay: Effect on apoptotic BCL2L10 gene expression in human HT29 cells after 6 hrs; format: functional
HT-29 [10] = assay: Effect on proapoptotic TNFRSF11B gene expression in human HT29 cells after 6 hrs; format: functional
HT-29 [11] = assay: Effect on apoptosis in human HT29 PI+/AnnV- cells after 6 hrs by biparametric flow cytometric analysis; format: functional; settings: HT-29, 6 h, read-out: LC50 (the source's name)
HT-29 [12] = assay: Effect on proapoptotic BNIP1 gene expression in human HT29 cells after 6 hrs; format: functional
[13] = Ratio of Kapp for synthetic poly(dA-dT)]2 oligonucleotide to Kapp for synthetic poly(dG-dC)]2 oligonucleotide
HT-29 [14] = assay: Effect on proapoptotic TRAF4 gene expression in human HT29 cells after 12 hrs; format: functional
HT-29 [15] = assay: Effect on apoptosis in human HT29 PI+/AnnV- cells after 12 hrs by biparametric flow cytometric analysis; format: functional; settings: HT-29, 12 h, read-out: LC50 (the source's name)
HT-29 [16] = assay: Effect on proapoptotic CIDEB gene expression in human HT29 cells after 6 hrs; format: functional
HT-29 [17] = assay: Effect on proapoptotic CARD6 gene expression in human HT29 cells after 6 hrs; format: functional
HT-29 [18] = assay: Effect on proapoptotic CASP8 gene expression in human HT29 cells after 6 hrs; format: functional
HT-29 [19] = assay: Effect on apoptosis in human HT29 PI-/AnnV- cells after 6 hrs by biparametric flow cytometric analysis; format: functional; settings: HT-29, 6 h, read-out: LC50 (the source's name)
HT-29 [20] = assay: Effect on apoptotic CFLAR gene expression in human HT29 cells after 6 hrs; format: functional
HT-29 [21] = assay: Effect on proapoptotic BCL2 gene expression in human HT29 cells after 12 hrs; format: functional
HT-29 [22] = assay: Effect on proapoptotic CD70 gene expression in human HT29 cells after 12 hrs; format: functional
HT-29 [23] = assay: Effect on proapoptotic BAK1 gene expression in human HT29 cells after 12 hrs; format: functional
HT-29 [24] = assay: Effect on apoptosis in human HT29 PI+/AnnV+ cells after 6 hrs by biparametric flow cytometric analysis; format: functional; settings: HT-29, 6 h, read-out: LC50 (the source's name)
HT-29 [25] = assay: Effect on apoptosis in human HT29 PI-/AnnV+ cells after 12 hrs by biparametric flow cytometric analysis; format: functional; settings: HT-29, 12 h, read-out: LC50 (the source's name)
HT-29 [26] = assay: Effect on proapoptotic TRAF4 gene expression in human HT29 cells after 6 hrs; format: functional
HT-29 [27] = assay: Effect on proapoptotic BAX gene expression in human HT29 cells after 6 hrs; format: functional
HT-29 [28] = assay: Effect on proapoptotic TNFRSF21 gene expression in human HT29 cells after 6 hrs; format: functional
HT-29 [29] = assay: Effect on apoptosis in human HT29 PI+/AnnV+ cells after 12 hrs by biparametric flow cytometric analysis; format: functional; settings: HT-29, 12 h, read-out: LC50 (the source's name)
HT-29 [30] = assay: Effect on proapoptotic CD27 gene expression in human HT29 cells after 12 hrs; format: functional
HT-29 [31] = assay: Effect on proapoptotic BAX gene expression in human HT29 cells after 12 hrs; format: functional
HT-29 [32] = assay: Effect on proapoptotic NOD1 gene expression in human HT29 cells after 6 hrs; format: functional
HT-29 [33] = assay: Effect on proapoptotic BCL2 gene expression in human HT29 cells after 6 hrs; format: functional
HT-29 [34] = assay: Effect on proapoptotic CD70 gene expression in human HT29 cells after 6 hrs; format: functional
HT-29 [35] = assay: Effect on apoptotic BCL2L1 gene expression in human HT29 cells after 12 hrs; format: functional
HT-29 [36] = assay: Effect on proapoptotic TRAF2 gene expression in human HT29 cells after 6 hrs; format: functional
HT-29 [37] = assay: Effect on proapoptotic CASP6 gene expression in human HT29 cells after 6 hrs; format: functional
HT-29 [38] = assay: Effect on proapoptotic TRADD gene expression in human HT29 cells after 6 hrs; format: functional
HT-29 [39] = assay: Effect on apoptotic NOL3 gene expression in human HT29 cells after 6 hrs; format: functional
HT-29 [40] = assay: Effect on proapoptotic BNIP3L gene expression in human HT29 cells after 12 hrs; format: functional
HT-29 [41] = assay: Effect on proapoptotic CASP9 gene expression in human HT29 cells after 12 hrs; format: functional
HT-29 [42] = assay: Effect on proapoptotic BFAR gene expression in human HT29 cells after 6 hrs; format: functional
HT-29 [43] = assay: Effect on apoptosis in human HT29 PI+/AnnV- cells after 24 hrs by biparametric flow cytometric analysis; format: functional; settings: HT-29, 24 h, read-out: LC50 (the source's name)
HT-29 [44] = assay: Effect on proapoptotic CASP9 gene expression in human HT29 cells after 6 hrs; format: functional
HT-29 [45] = assay: Effect on proapoptotic FADD gene expression in human HT29 cells after 6 hrs; format: functional
HT-29 [46] = assay: Effect on proapoptotic BCL2L11 gene expression in human HT29 cells after 6 hrs; format: functional
HT-29 [47] = assay: Effect on apoptotic MCL1 gene expression in human HT29 cells after 6 hrs; format: functional
HT-29 [48] = assay: Effect on apoptosis in human HT29 PI-/AnnV+ cells after 6 hrs by biparametric flow cytometric analysis; format: functional; settings: HT-29, 6 h, read-out: LC50 (the source's name)
HT-29 [49] = assay: Effect on proapoptotic BNIP3L gene expression in human HT29 cells after 6 hrs; format: functional
HT-29 [50] = assay: Effect on proapoptotic CARD8 gene expression in human HT29 cells after 6 hrs; format: functional
HT-29 [51] = assay: Effect on proapoptotic BCLAF1 gene expression in human HT29 cells after 12 hrs; format: functional
HT-29 [52] = assay: Effect on apoptotic NAIP gene expression in human HT29 cells after 12 hrs; format: functional
HT-29 [53] = assay: Effect on apoptosis in human HT29 PI-/AnnV- cells after 24 hrs by biparametric flow cytometric analysis; format: functional; settings: HT-29, 24 h, read-out: LC50 (the source's name)
HT-29 [54] = assay: Effect on apoptotic GADD45A gene expression in human HT29 cells after 6 hrs; format: functional
HT-29 [55] = assay: Effect on proapoptotic TP53 gene expression in human HT29 cells after 6 hrs; format: functional
HT-29 [56] = assay: Effect on apoptosis in human HT29 PI-/AnnV- cells after 12 hrs by biparametric flow cytometric analysis; format: functional; settings: HT-29, 12 h, read-out: LC50 (the source's name)
HT-29 [57] = assay: Effect on apoptotic BIRC4 gene expression in human HT29 cells after 6 hrs; format: functional
HT-29 [58] = assay: Effect on proapoptotic BAK1 gene expression in human HT29 cells after 6 hrs; format: functional
HT-29 [59] = assay: Effect on proapoptotic CASP7 gene expression in human HT29 cells after 6 hrs; format: functional
HT-29 [60] = assay: Effect on apoptotic BIRC4 gene expression in human HT29 cells after 12 hrs; format: functional
HT-29 [61] = assay: Effect on apoptotic BNIP2 gene expression in human HT29 cells after 12 hrs; format: functional
HT-29 [62] = assay: Effect on apoptotic BIRC8 gene expression in human HT29 cells after 6 hrs; format: functional
HT-29 [63] = assay: Effect on apoptotic BNIP2 gene expression in human HT29 cells after 6 hrs; format: functional
HT-29 [64] = assay: Effect on proapoptotic CIDEB gene expression in human HT29 cells after 12 hrs; format: functional
HT-29 [65] = assay: Effect on proapoptotic BFAR gene expression in human HT29 cells after 12 hrs; format: functional
HT-29 [66] = assay: Cytotoxicity against human HT29 cells after 72 hrs; format: functional; settings: HT-29, 72 h
HT-29 [67] = assay: Effect on apoptosis in human HT29 PI-/AnnV+ cells after 24 hrs by biparametric flow cytometric analysis; format: functional; settings: HT-29, 24 h, read-out: LC50 (the source's name)
HT-29 [68] = assay: Effect on proapoptotic TRADD gene expression in human HT29 cells after 12 hrs; format: functional
HT-29 [69] = assay: Effect on proapoptotic BIK gene expression in human HT29 cells after 6 hrs; format: functional
HT-29 [70] = assay: Effect on apoptotic ABL1 gene expression in human HT29 cells after 12 hrs; format: functional
HT-29 [71] = assay: Effect on apoptotic BIRC3 gene expression in human HT29 cells after 6 hrs; format: functional
HT-29 [72] = assay: Effect on apoptotic ABL1 gene expression in human HT29 cells after 6 hrs; format: functional
HT-29 [73] = assay: Effect on apoptotic NAIP gene expression in human HT29 cells after 6 hrs; format: functional
HT-29 [74] = assay: Effect on apoptosis in human HT29 PI+/AnnV+ cells after 24 hrs by biparametric flow cytometric analysis; format: functional; settings: HT-29, 24 h, read-out: LC50 (the source's name)

`CN(C)CCNc1ccc(NCCCN(C)CCCNc2ccc(NCCN(C)C)c3c2C(=O)c2cnccc2C3=O)c2c1C(=O)c1ccncc1C2=O` showed a Fold change (HT-29 [1]) of 15, a Fold change (HT-29 [2]) of 2.2 and a Fold change (HT-29 [3]) of 4.5. For the same compound, the Fold change (HT-29 [4]) was 2.4, the Fold change (HT-29 [5]) was 2.2 and the Fold change (HT-29 [6]) was 4.3. It also gave a Fold change (HT-29 [7]) of 7.8, a Fold change (HT-29 [8]) of 3 and a Fold change (HT-29 [9]) of 3.1. The Fold change (HT-29 [10]) was 2.1, the CC50 (HT-29 [11]) was 3.3 µM and the Fold change (HT-29 [12]) was 3. It also gave a Ratio [13] of 2.5, a Fold change (HT-29 [14]) of 23 and a CC50 (HT-29 [15]) of 5.3 µM. The Fold change (HT-29 [16]) was 9.3, the Fold change (HT-29 [17]) was -5 and the Fold change (HT-29 [18]) was 2.5. For the same compound, the CC50 (HT-29 [19]) was 88.5 µM, the Fold change (HT-29 [20]) was 4 and the Fold change (HT-29 [21]) was -5.9. It also gave a Fold change (HT-29 [22]) of 2.2, a Fold change (HT-29 [23]) of 4.1 and a CC50 (HT-29 [24]) of 0.8 µM. The CC50 (HT-29 [25]) was 10.3 µM, the Fold change (HT-29 [26]) was 94 and the Fold change (HT-29 [27]) was 5.3. The Fold change (HT-29 [28]) was 3.7, the CC50 (HT-29 [29]) was 1.2 µM and the Fold change (HT-29 [30]) was 2.2. It also gave a Fold change (HT-29 [31]) of 3, a Fold change (HT-29 [32]) of 4.2 and a Fold change (HT-29 [33]) of 4.2. The Fold change (HT-29 [34]) was 2.2, the Fold change (HT-29 [35]) was -5.9 and the Fold change (HT-29 [36]) was 2.4. The Fold change (HT-29 [37]) was 3, the Fold change (HT-29 [38]) was 4.3 and the Fold change (HT-29 [39]) was 4.7. The Fold change (HT-29 [40]) was 3.6, the Fold change (HT-29 [41]) was 8.5 and the Fold change (HT-29 [42]) was 5.4. The CC50 (HT-29 [43]) was 8.3 µM, the Fold change (HT-29 [44]) was 3 and the Fold change (HT-29 [45]) was 2.4. It also gave a Fold change (HT-29 [46]) of 7.7, a Fold change (HT-29 [47]) of -10 and a CC50 (HT-29 [48]) of 7.4 µM. For the same compound, the Fold change (HT-29 [49]) was 7.4, the Fold change (HT-29 [50]) was 4 and the Fold change (HT-29 [51]) was 136. It also gave a Fold change (HT-29 [52]) of 52, a CC50 (HT-29 [53]) of 37.1 µM and a Fold change (HT-29 [54]) of 3. It also gave a Fold change (HT-29 [55]) of 3, a CC50 (HT-29 [56]) of 83.2 µM and a Fold change (HT-29 [57]) of 9.3. It also gave a Fold change (HT-29 [58]) of 4.5, a Fold change (HT-29 [59]) of 6.4 and a Fold change (HT-29 [60]) of 2. For the same compound, the Fold change (HT-29 [61]) was -3.3, the Fold change (HT-29 [62]) was -2.3 and the Fold change (HT-29 [63]) was -2.9. The Fold change (HT-29 [64]) was 4.4, the Fold change (HT-29 [65]) was -2.5 and the GI50 (HT-29 [66]) was 0.3 µM. The LC50 (concentration killing 50% of cells) (HT-29 [66]) was 62 µM, the TGI (HT-29 [66]) was 5.1 µM and the CC50 (HT-29 [67]) was 36.3 µM. It also gave a Fold change (HT-29 [68]) of 2.5, a Fold change (HT-29 [69]) of 5.2 and a Fold change (HT-29 [70]) of 58. For the same compound, the Fold change (HT-29 [71]) was 2.5, the Fold change (HT-29 [72]) was 33 and the Fold change (HT-29 [73]) was 9.6. For the same compound, the CC50 (HT-29 [74]) was 18.3 µM.
